Laboratory results: publication PMC8326117 (International Journal of Biological Sciences, 2021)

Tests used:
ACE2 = ACE2 (Homo sapiens, UniProt Q9BYF1); test: LSPR assay, binding to ACE2
[1] = mouse, in vivo

ACE2, sequence (Q9BYF1 18-805): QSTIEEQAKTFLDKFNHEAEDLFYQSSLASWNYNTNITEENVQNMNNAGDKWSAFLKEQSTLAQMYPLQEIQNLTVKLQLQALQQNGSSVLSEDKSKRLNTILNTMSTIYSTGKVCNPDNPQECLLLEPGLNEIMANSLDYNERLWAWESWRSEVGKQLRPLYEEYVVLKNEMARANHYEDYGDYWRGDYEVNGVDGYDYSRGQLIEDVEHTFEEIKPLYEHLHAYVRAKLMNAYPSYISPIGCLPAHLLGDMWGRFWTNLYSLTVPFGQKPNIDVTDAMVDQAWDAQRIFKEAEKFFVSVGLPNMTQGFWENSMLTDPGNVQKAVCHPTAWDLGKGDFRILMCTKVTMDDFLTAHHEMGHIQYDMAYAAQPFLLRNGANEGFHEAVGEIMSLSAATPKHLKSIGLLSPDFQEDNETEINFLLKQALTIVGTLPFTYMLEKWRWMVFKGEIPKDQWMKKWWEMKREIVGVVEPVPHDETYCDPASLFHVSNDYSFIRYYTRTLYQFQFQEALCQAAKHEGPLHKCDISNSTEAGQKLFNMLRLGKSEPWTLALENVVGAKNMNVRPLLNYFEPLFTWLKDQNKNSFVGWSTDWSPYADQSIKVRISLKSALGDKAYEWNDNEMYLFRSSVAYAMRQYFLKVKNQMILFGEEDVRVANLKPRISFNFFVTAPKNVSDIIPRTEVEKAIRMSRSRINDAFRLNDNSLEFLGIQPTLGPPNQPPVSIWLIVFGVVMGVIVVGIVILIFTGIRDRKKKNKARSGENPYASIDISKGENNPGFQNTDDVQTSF

Compound `CC(C)C[C@H](NC(=O)[C@@H]1CCCN1C(=O)[C@H](Cc1ccccc1)NC(=O)[C@H](Cc1ccc(O)cc1)NC(=O)[C@H](CS)NC(=O)[C@H](CC(N)=O)NC(=O)[C@H](Cc1ccccc1)NC(=O)CNC(=O)[C@H](CCC(=O)O)NC(=O)[C@@H](NC(=O)[C@H](CCCCN)NC(=O)[C@H](CCCCN)NC(=O)[C@H](CCCCN)NC(=O)[C@H](CCCCN)NC(=O)[C@H](CCCCN)NC(=O)[C@@H](N)CCCCN)C(C)C)C(=O)N[C@@H](CCC(N)=O)C(=O)N[C@@H](CO)C(=O)O` [AYp28] has a Kd (ACE2) of 47.6 nM, a koff (ACE2; pH 7.4) of 0.000205 s⁻¹ and a kon (ACE2; pH 7.4) of 4310 M⁻¹ s⁻¹. The cytotoxicity (HEK293T/hACE2 cells) was “no significant cytotoxicity”, the “distribution in livers and kidneys” value [1] was “not in the kidneys and livers” and the “distribution in lungs and small intestine” value [1] was “preferentially distributed in the lungs and intestine”.
